# Laboratory results reported in PubChem BioAssay (NCI).
# Where “and” joins values, the source holds several entries; their conditions need not be identical. Identical values can stand only once.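 Dose response: 5 concentrations. Exposure: 48 h. Format: 96-well plates. Endpoint: linear interpolation; highest concentration if not reached. GI50 marks 50% less growth. At the TGI there is no net growth.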
# Legend:
# Experiment in all cases: growth of human tumour cells (NCI), 48 h
# NCI-H226 lung = tested on: NCI-H226 lung
# NCI-H522 lung = tested on: NCI-H522 lung
# SN12C renal = tested on: SN12C renal
# KM12 colon = tested on: KM12 colon
# OVCAR-4 ovarian = tested on: OVCAR-4 ovarian
# UACC-257 melanoma = tested on: UACC-257 melanoma
# SNB-19 CNS = tested on: SNB-19 CNS
# TK-10 renal = tested on: TK-10 renal
# IGROV1 ovarian = tested on: IGROV1 ovarian
# MCF7 breast = tested on: MCF7 breast
Compound,GI50 (NCI-H226 lung),TGI (NCI-H226 lung),GI50 (NCI-H522 lung),TGI (NCI-H522 lung),GI50 (SN12C renal),TGI (SN12C renal),GI50 (KM12 colon),TGI (KM12 colon),GI50 (OVCAR-4 ovarian),TGI (OVCAR-4 ovarian),GI50 (UACC-257 melanoma),TGI (UACC-257 melanoma),GI50 (SNB-19 CNS),TGI (SNB-19 CNS),GI50 (TK-10 renal),TGI (TK-10 renal),GI50 (IGROV1 ovarian),TGI (IGROV1 ovarian),GI50 (MCF7 breast),TGI (MCF7 breast)
CC1=CC2(C)/C=C(C)/C=C\CC(O)/C=C3/C=CC(=C4C(=O)OC2(CC1C)C4=O)OC3 (stereo not given),11.8 µM,47.9 µM,2.46 µM,8.55 µM,1.92 µM,5.01 µM,3.17 µM,10.5 µM,1.89 µM,4.91 µM,1.82 µM,4.36 µM,12 µM,25.9 µM,1.54 µM,3.46 µM,2.93 µM,8.93 µM,2.11 µM,20.7 µM
O=C(Nc1cccc([N+](=O)[O-])c1)c1cccc(C(=O)Nc2cccc([N+](=O)[O-])c2)c1,> 100 µM,> 100 µM,3.32 µM,> 100 µM,60.3 µM,> 100 µM,> 100 µM,> 100 µM,> 100 µM,> 100 µM,> 100 µM,> 100 µM,28.6 µM,> 100 µM,9.71 µM,> 61.3 µM,33.9 µM,> 100 µM,> 100 µM,> 100 µM
O=C(Nc1nc2c(C(F)(F)F)cccc2s1)c1cc(Cl)ccc1O,0.269 µM,1.31 µM,0.285 µM,14 µM,0.289 µM,1.53 µM,0.363 µM,11.8 µM,0.34 µM,> 100 µM,0.273 µM,0.821 µM,0.345 µM,65.6 µM,0.365 µM,10.7 µM,0.511 µM,35 µM,0.302 µM,27.5 µM
C=CCc1c(O)c(C(=O)/C=C/c2ccc(Cl)cc2)c(OC)c2ccoc12,1.52 µM,2.97 µM,1.88 µM,5.71 µM,4.96 µM,16.9 µM,3.72 µM,13 µM,2.77 µM,13.1 µM,2.39 µM,6.62 µM,2.85 µM,8.15 µM,3.62 µM,12.9 µM,3.46 µM,14.9 µM,2.51 µM,11.4 µM
Cc1ccc2ccccc2c1CSc1nc(N)nc2c1ncn2CC(C)C,,72.7 µM,,96.9 µM,,> 100 µM,,> 100 µM,,> 100 µM,,> 87.3 µM,,> 100 µM,,> 100 µM,,> 100 µM,,> 63.9 µM
Oc1c(C(Nc2ccccn2)c2ccccc2)ccc2cccnc12 (stereo not given),,7.54 µM,,11.8 µM,,17.4 µM,,> 100 µM,,31.9 µM,,> 100 µM,,> 100 µM,,> 25.9 µM,,16.3 µM,,> 100 µM
COC(=O)CC[C@@H](C)[C@H]1CC[C@H]2[C@@H]3CC[C@@H]4C[C@H](O)CC[C@]4(C)[C@H]3CC[C@]12C,,36.6 µM,,46.8 µM,,33.2 µM,,34.5 µM,,36.5 µM,,29.5 µM,,44.9 µM,,37.4 µM,,35.4 µM,,36.3 µM
c1ccc2c(N=NSc3ncnc4nc[nH]c34)c3ccccc3nc2c1,0.641 µM,2.31 µM,1.35 µM,3.36 µM,0.811 µM,12.8 µM,1.61 µM,10.7 µM,1.63 µM,10.5 µM,0.662 µM,6.56 µM,1.36 µM,13 µM,1.77 µM,6.37 µM,2.73 µM,8.6 µM,0.37 µM,10.4 µM
CC(NNC(=S)N1CCN(c2ccccn2)CC1)c1nccc2ccccc12 (stereo not given),,8.11 µM,,14 µM,,11.3 µM,,19 µM,,19.2 µM,,12.9 µM,,17 µM,,16.3 µM,,18.5 µM,,14.3 µM
Cn1nc(C(F)(F)F)cc1-c1cc(Cl)c(OCc2ccc(Cl)cc2)c(-c2ccc(Cl)c(C(F)(F)F)c2)c1O,1.36 µM,4.3 µM,0.731 µM,5.09 µM,0.785 µM,4.58 µM,1.38 µM,5.07 µM,1.66 µM,7.14 µM,0.964 µM,3.14 µM,1.16 µM,6.72 µM,1.66 µM,5.56 µM,1.56 µM,6.42 µM,1.01 µM,5.33 µM
COc1nn(C)cc1Nc1nccc(-c2c[nH]c3c(NC(=O)[C@@H](C)N4CCN(C)CC4)cccc23)n1,14.3 µM,> 100 µM,43.2 µM,> 100 µM,38.3 µM,> 100 µM,37.6 µM,> 100 µM,47.9 µM,> 100 µM,27.7 µM,78.7 µM,75.6 µM,> 100 µM,44.1 µM,> 100 µM,18.9 µM,> 100 µM,31.7 µM,> 100 µM
CCC[CH2][Sn]1([CH2]CCC)[O]C(=O)c2cccc([N+](=O)[O-])c2C(=O)[O]1,0.331 µM,1.34 µM,0.0711 µM,0.217 µM,0.784 µM,2.15 µM,1.6 µM,3.16 µM,0.465 µM,1.73 µM,0.292 µM,1.19 µM,1.2 µM,2.51 µM,0.335 µM,0.805 µM,0.89 µM,2.38 µM,0.244 µM,1.13 µM
CC1=CC(C)=N/C(=N/S(=O)(=O)c2cc(C)c(Cl)cc2SCc2ccccc2)NN1,> 100 µM,> 100 µM,96.6 µM,> 100 µM,> 100 µM,> 100 µM,> 100 µM,> 100 µM,79.1 µM,> 100 µM,> 100 µM,> 100 µM,> 100 µM,> 100 µM,> 100 µM,> 100 µM,> 100 µM,> 100 µM,> 100 µM,> 100 µM
Clc1ccc2c(NC3CCC(N4CCCCC4)CC3)ccnc2c1 (stereo not given),,48.1 µM,,51.6 µM,,> 100 µM,,51.9 µM,,78.6 µM,,29.4 µM,,> 100 µM,,48.8 µM,,> 100 µM,,> 100 µM
Cc1nnc(N/N=C/c2ccc([N+](=O)[O-])o2)[nH]c1=O,1.46 µM,25.4 µM,0.914 µM,5.58 µM,0.589 µM,22.5 µM,0.575 µM,> 100 µM,3.36 µM,> 100 µM,0.0512 µM,5.26 µM,0.779 µM,> 100 µM,1.03 µM,> 25 µM,3.82 µM,> 100 µM,1.24 µM,> 100 µM
CCN(CC)CCOc1nc2ccccc2c2c1-c1ccc(OC)cc1C2=O,0.935 µM,4.42 µM,0.613 µM,2.4 µM,0.502 µM,6.21 µM,0.395 µM,1.58 µM,1.36 µM,6.83 µM,1.6 µM,3.38 µM,0.788 µM,6.6 µM,1.85 µM,12.6 µM,0.384 µM,2.63 µM,0.345 µM,2.23 µM
Cc1cc(OCc2ccc(C(F)(F)F)cc2)c2c(c1)C(=O)C=C(NCCN1CCCC1)C2=O,14.6 µM,35.2 µM,2.66 µM,6.05 µM,9.86 µM,28.3 µM,4.39 µM,15.4 µM,4.01 µM,15.5 µM,1.67 µM,3.27 µM,2.46 µM,6.2 µM,6.85 µM,22.2 µM,6.69 µM,25.1 µM,1.67 µM,3.56 µM
Cc1cc(N(CCC#N)S(=O)(=O)c2ccccc2)ccc1C=Nc1ccc(C(=O)O)cc1,,40.7 µM,,9.13 µM,,16.8 µM,,42.6 µM,,18.6 µM,,30 µM,,44.8 µM,,17.9 µM,,46.5 µM,,> 100 µM
COc1cc(OC)c(/C=C/C(=O)c2c(OC)cc(OC)cc2OC)c(OC)c1,3.41 µM,> 100 µM,0.515 µM,4.18 µM,1.81 µM,> 74.4 µM,0.469 µM,2.57 µM,5.94 µM,> 100 µM,3.58 µM,> 100 µM,2.54 µM,14.9 µM,3.31 µM,> 100 µM,0.577 µM,25.2 µM,1.41 µM,> 100 µM
COc1cc2c(cc1OCC(=O)Nc1ccc(Cl)cc1C(=O)c1ccccc1Cl)N=CC1CCCN1C2=O (stereo not given),17.6 µM,34.3 µM,2.59 µM,7.17 µM,13.8 µM,27.8 µM,11.8 µM,26 µM,14.4 µM,32.9 µM,16.6 µM,30.2 µM,14.9 µM,30.1 µM,12.2 µM,25.1 µM,3.9 µM,16.4 µM,5.27 µM,17.5 µM
COc1ccc(C(=O)/C=C/c2ccc(OCc3cccc(C(F)(F)F)c3)c(OC)c2)cc1OC,83.1 µM,> 1000 µM,39.2 µM,> 1000 µM,74.4 µM,> 1000 µM,55.3 µM,> 1000 µM,51.7 µM,> 1000 µM,613 µM,> 1000 µM,78.9 µM,> 1000 µM,397 µM,> 1000 µM,60.2 µM,> 1000 µM,27.4 µM,> 1000 µM
O=C(Nc1ccc(Cl)c(Cl)c1)c1ccc(NC2=C(Cl)C(=O)N(Cc3ccccc3)C2=O)cc1,7.33 µM,20.8 µM,13.1 µM,27.2 µM,10.9 µM,25.9 µM,11.5 µM,27.2 µM,17.2 µM,42.1 µM,3.67 µM,11.9 µM,52.9 µM,> 100 µM,18.8 µM,39.2 µM,2.71 µM,8.14 µM,2.1 µM,4.82 µM
Cc1ccc(NC(=O)COc2ccc(Cl)cc2)cc1Cl,,> 100 µM,,> 100 µM,,> 100 µM,,> 100 µM,,> 100 µM,,> 100 µM,,> 100 µM,,> 100 µM,,> 100 µM,,> 100 µM
O=C1OC(OC/C(Br)=C(\Br)COC2OC(=O)C(Cl)=C2Cl)C(Cl)=C1Cl (stereo not given),,40.8 µM,,3.24 µM,,16.6 µM,,55.7 µM,,19.3 µM,,23.9 µM,,34.3 µM,,15.2 µM,,26.3 µM,,25.4 µM
Cc1c(C(=O)Nc2ccc(N3C[C@@H](C)O[C@@H](C)C3)nc2)cccc1-c1ccc(OC(F)(F)F)cc1,8.11 µM and 13.8 µM,31.9 µM and 40.8 µM,9.14 µM and 10.2 µM,33.9 µM and 34.9 µM,10.8 µM and 14.1 µM,29.8 µM and 44.6 µM,12.7 µM and 9.64 µM,59 µM and 50.4 µM,4.28 µM and 11.5 µM,21.4 µM and 36.2 µM,10.7 µM and 12.6 µM,38 µM and 74.7 µM,7.85 µM and 21.3 µM,32 µM and > 100 µM,5.48 µM and 9.98 µM,21.2 µM and 30.3 µM,9.63 µM and 11.6 µM,37.5 µM and 33.6 µM,8.25 µM and 15.4 µM,31 µM and 49 µM
CC1=C(CCC(C)CO)O[C@H]2C[C@H]3[C@@H]4CC[C@H]5C[C@@H](O)CC[C@]5(C)[C@H]4CC(=O)[C@]3(C)[C@@H]12 (stereo not given in full),,> 82.2 µM,,30.3 µM,,53.2 µM,,30.4 µM,,> 82.2 µM,,36.6 µM,,55.5 µM,,46.7 µM,,55 µM,,> 59.4 µM
COC(=O)[C@]1(C)CCC[C@@]2(C)C3=C(CC[C@H]12)C[C@@H](CC(OC(C)=O)OC(C)=O)[C@@H](C)C3,11.2 µM,31.1 µM,> 28 µM,> 50 µM,9.42 µM,20.6 µM,10.1 µM,22.6 µM,14.4 µM,47.4 µM,10.1 µM,19.7 µM,13.5 µM,32.1 µM,13.5 µM,27.2 µM,14.5 µM,> 37.1 µM,7.99 µM,18.5 µM
C=C1C(=O)O[C@@H]2/C=C(/C)[C@@H](OC(C)=O)C[C@@H](O)/C(C)=C\[C@@H](OC(=O)[C@]3(C)O[C@@H]3C)[C@@H]12,,> 100 µM,,2.81 µM,,24.7 µM,,36.3 µM,,45.8 µM,,33.2 µM,,> 100 µM,,29.5 µM,,32.9 µM,,18.1 µM
